Data set [1] in a line: In vivo pharmacokinetic in mouse plasma. As to conditions: mice; iv 20 mg/kg, SC 40 mg/kg, PO 40 mg/kg; after 1 hour. Here is the method:
The pharmacokinetic of CB-03-10 was evaluated in plasma of mice after intravenous (IV), subcutaneous (SC) and oral administration (PO).
Mice (3 per group) were administered with the following doses, blood was collected at the indicated times. Plasma samples were analyzed by HPLC-MS/MS.

For the next data set, the system named is Caspase 8 and Caspase 9. Kind of data set: Caspase activity assay in MiaPaca2 cells. Type of data set: cell-based. Conditions: 20 or 50 μM, evident after 8 hours, corrected for viable cells.
The test system of another data set is Caspase 3/7. The experiment in a line: Caspase activity assay in MiaPaca2 cells. The class given is cell-based. As to conditions: 8, 24, 48 hours, FIG. 11.
The next data set concerns MCF7. The experiment in a line: In vitro proliferation / cytotoxic assay on breast cancer cells (cell titer glo). As to conditions: human, 3 days. On the procedure: For the cytotoxic assay: cells seeded in 96 well flat bottom culture plates in media containing charcoal stripped serum. After 24 hours test compounds were added to the cells. DMSO was used as the vehicle negative control and RU486 as the positive control. After 72 hours incubation cell were harvested, lysed and viability determined using the cell titer glow assay for viability.
Background: Cellular ATP, detected with luciferase, serves as a proxy for viable cell number.

The subject of data set [2] is MiaPaca2 cells. The experiment in a line: Cell cycle arrest, propidium iodide staining. The class given is cell-based. Conditions: 24 hours; FIG. 10. Here is the method:
Apoptosis can occur at the G1/S or G2/M transition of the cell cycle. Cells were treated with CB-03-10 for 24 hours then fixed with paraformaldehyde and stained with propidium iodide. […] The lack of G1 block indicates no effect on p53. The S & G2/M blocks may indicate activity on cell cycle check point molecules. For S phase, a possible target is the cyclin dependent kinase 2 (CDK2). Gemzar and cisplatin are example drugs that act in S phase. For G2, a possible target is CDK1.

The test system of another data set is BxPC3. As to conditions: human, 3 days.
Data set [3] concerns MiaPaca2 cells. The experiment in a line: Apoptosis induction, Annexin V / propidium iodide flow cytometry. The class given is cell-based. As to conditions: 24 hours; control 11%; FIG. 9. Here is the method:
CB-03-10 was evaluated to determine if the mechanism of cytotoxicity on cancer cell lines was mediated by apoptosis and cell cycle arrest. Cancer cell lines were seeded in 6-well flat bottom plates. After 24 hours test compounds or DMSO vehicle (negative control) were added. After an additional 24 hours cells were scraped and stained with fluorescein conjugated Annexin V and propidium iodide and analyzed by flow cytometry.
(Flow cytometry measures light scatter and fluorescence of single cells or particles in a stream.)

A short description of data set [4]: In vitro metabolism in human plasma. Type of data set: in vitro ADME. As to conditions: 37 C; liquid chromatography; FIG. 13. On the procedure:
(§1) To obtain some insights on the metabolism of CB-03-10 in human and rat plasma, a specific assay was designed. Briefly the compound was incubated at different time in human and rat plasma at 37 C. After incubation the samples were tested for presence of the intact compound by liquid chromatography.

The test system of data set [5] is LNCaP prostate cancer xenograft. The experiment in a line: Human prostate cancer xenograft in nude mice, oral treatment. Type of data set: in vivo. On the procedure: 3×10^6 LNCaP cells suspended in matrigel were subcutaneously injected (on the right flank) into 6 week old male athymic nude mice. Tumors were measured as described above. Treatment with CB-03-10 and controls compounds was initiated after the tumor had reached 50 mm3. […] Oral dosing was daily (100 mg/Kg in 200 μL/mouse) for 28 consecutive days. Results were plotted as average change in tumor volume relative to the start of treatment.

A further data set has as its system MiaPaca2. Conditions: human, 3 days.
Another data set deals with T1, Glucocorticoid Receptor (Homo sapiens, UniProt P04150).
T1 construct: endogenous in cells; host or cells: human kidney epithelial cells
T1 sequence (P04150 1-777): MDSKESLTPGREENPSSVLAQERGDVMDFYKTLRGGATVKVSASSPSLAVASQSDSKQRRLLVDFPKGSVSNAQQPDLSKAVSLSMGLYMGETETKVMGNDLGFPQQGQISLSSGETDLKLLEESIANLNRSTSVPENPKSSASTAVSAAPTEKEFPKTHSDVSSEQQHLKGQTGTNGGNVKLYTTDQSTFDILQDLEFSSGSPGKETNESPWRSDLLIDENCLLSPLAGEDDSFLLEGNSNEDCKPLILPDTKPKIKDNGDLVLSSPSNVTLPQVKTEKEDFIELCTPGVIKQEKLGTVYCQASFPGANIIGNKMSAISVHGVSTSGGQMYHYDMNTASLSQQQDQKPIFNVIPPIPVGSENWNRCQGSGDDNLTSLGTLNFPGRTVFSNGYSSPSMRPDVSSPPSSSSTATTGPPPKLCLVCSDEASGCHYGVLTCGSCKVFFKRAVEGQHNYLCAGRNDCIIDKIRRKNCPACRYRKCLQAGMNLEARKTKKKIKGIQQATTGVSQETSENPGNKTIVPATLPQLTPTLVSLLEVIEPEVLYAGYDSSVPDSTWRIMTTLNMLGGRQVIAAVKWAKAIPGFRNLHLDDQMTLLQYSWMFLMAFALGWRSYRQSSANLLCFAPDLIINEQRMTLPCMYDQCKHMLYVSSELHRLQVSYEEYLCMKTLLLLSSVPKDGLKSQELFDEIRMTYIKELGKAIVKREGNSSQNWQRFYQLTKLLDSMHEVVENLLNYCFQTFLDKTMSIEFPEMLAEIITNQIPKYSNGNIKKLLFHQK
The experiment in a line: GR transcriptional reporter assay, antagonist mode. The class given is cell-based. As to conditions: inhibition of luminescence induced by Dexamethasone; compared to RU486; FIG. 7. On the procedure: The androgen and glucocorticoid hormones elicit divergent and often opposing effects in cells, tissues, and animals. […] CB-03-10 GR antagonist and agonist activities were tested in an in vitro assay. Briefly, human kidney epithelial cells were transfected with DNA construct containing GR binding sites linked to luminescent based reporter molecule. After 24 hours, cells were treated under antagonist or agonist modes. After an additional 24 hours, luminescence which is proportional to GR agonist transcriptional activity was quantitated.
Antagonist Assay was based on inhibition of luminescence induced by Dexamethasone (Dex).
The antagonist activity of CB-03-10 was compared to a known GR antagonist, Mifepristone (also called RU486) as shown in FIG. 7.
Background: A reporter such as luciferase makes a cellular process visible.

Data set [6] in a line: In vitro metabolism in rat plasma. Type of data set: in vitro ADME. Conditions: 37 C; liquid chromatography; FIG. 13. Here is the method: as §1

Experimental for Caspase 3/7: (§2) To better analyze the phenomenon the enzymatic activity of Caspase 8 (initiator caspase for Extrinsic Pathway) and Caspase 9 (initiator caspase for Intrinsic Pathway) and of Caspases 3 and 7 (effector caspases) were measured.
(§3) After 8, 24, & 48 hours incubation with test compounds, cells were lysed in buffer containing the caspase 3/7 or 8 or 9 substrate and a stable luciferase in proprietary buffers. The lysates were transferred to white opaque plates before measuring luminescence in a Tecan S afire instrument. Parallel plates treated identically, were used to determine viable cells. All caspase activities were corrected for the number of viable cells.
Experimental for Caspase 8 and Caspase 9: as §2, §3

Take `CCCCC(=O)O[C@]1(C(=O)COC(=O)CC)CC[C@H]2[C@@H]3CCC4=CC(=O)CC[C@]4(C)[C@H]3CC[C@@]21C` [CB-03-10, cortexolone 17α-valerate-21-propionate]: the “plasma level of intact compound” value in data set [1] is “undetectable”. Also, the “caspase 8 and 9 activity, increase compared to control” value with Caspase 8 and Caspase 9 is recorded as at most 7 fold. Also, the “Caspase 3/7 induction / caspase activation profile” value with Caspase 3/7 is “already at 8 hours at and a really high level after 48 hours incubation”. In the data set with MCF7, the “Therapeutic Index = IC50 resting PBMC/IC50 cancer cell” value is given as 3 and the “Therapeutic Index = IC50 stimulated PBMC/IC50 cancer cell” value is listed as 3. For the same molecule, the cell cycle arrest result in the data set on MiaPaca2 cells [2] is reported as “induces an S phase block at lower concentrations then a G2/M block at higher concentration”. Besides, in the data set on BxPC3, the “Therapeutic Index = IC50 resting PBMC/IC50 cancer cell” value was found to be 3 and the “Therapeutic Index = IC50 stimulated PBMC/IC50 cancer cell” value turned out to be 3. Also, in the data set with MiaPaca2 cells [3], the “cells in apoptosis (early and late apoptosis), total” value is on record as 28%. The “degradation in human plasma” value in [4] is given as “rapidly degraded to CB-03-05 in human plasma”. Further, the “average tumor volume, times smaller than in the vehicle group” value in data set [5] (6 weeks after treatment was stopped) turned out to be 3.6 times. Also, in [5] (oral 100 mg/Kg daily 28 days, after stop), the “prostate tumor size increase after treatment was stopped” value is 5 fold. In data set [5] (oral 100 mg/Kg daily, treatment period of 28 days, negative control 10-fold), the “tumor volume increase relative to start of treatment” value was 2 fold. Moreover, the “statistical significance of tumor growth versus vehicle” value in data set [5] (oral gavage, FIG. 16) is “statistically significantly different from day 7 up to day 60”. Further, in the data set with MiaPaca2, the “TI on Resting PBMC” value is listed as 3, the “TI on Stimulated PBMC” value was determined as 3, the “Therapeutic Index = IC50 resting PBMC/IC50 cancer cell” value is 3 and the “Therapeutic Index = IC50 stimulated PBMC/IC50 cancer cell” value was determined as 3. Besides, the GR antagonist activity entry on Glucocorticoid Receptor is “potent antagonist (10 times less than RU486)”. Besides, the “degradation in rat plasma” value in [6] is on record as “degraded more rapidly in rat compared to human plasma”.

The values are drawn from patent publication US11712443B2, “17α-monoesters and 17α,21-diesters of cortexolone for use in the treatment of tumors” (COSMO TECHNOLOGIES LTD., priority 2014, dated 2023).
